Experimental data as given in the Kinase Knowledgebase extract (Sharma et al. 2016).

molecular target: MAPK14 (human) (UniProt Q16539); assay: Inhibition of MAPK14 Kinase Activity by PHAS-I Assay; conditions: not given
Sequence (Q16539 whole entry, looked up): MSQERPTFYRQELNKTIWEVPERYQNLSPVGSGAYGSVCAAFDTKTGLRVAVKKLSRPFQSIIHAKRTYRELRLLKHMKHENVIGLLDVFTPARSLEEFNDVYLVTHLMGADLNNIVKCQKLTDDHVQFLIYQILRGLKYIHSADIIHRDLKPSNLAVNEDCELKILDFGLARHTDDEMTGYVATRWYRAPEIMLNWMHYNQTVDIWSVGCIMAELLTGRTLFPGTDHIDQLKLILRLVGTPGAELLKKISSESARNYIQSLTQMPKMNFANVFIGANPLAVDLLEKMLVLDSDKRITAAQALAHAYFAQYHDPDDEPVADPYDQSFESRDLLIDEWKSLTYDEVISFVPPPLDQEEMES

Row | SMILES | IC50
1 | COc1ccc(-c2[nH]nc(C)c2-c2ccncc2)cc1Cl | 100 nM
2 | COCC(=O)N[C@H]1CC[C@@H](c2[nH]nc(-c3ccc(Cl)cc3)c2-c2ccncc2)CC1 | 77 nM
3 | CNCCCNC(=O)CSc1[nH]nc(-c2ccc(Cl)cc2)c1-c1ccncc1 | 1660 nM
4 | COc1cccc(C(=O)N[C@@H](C)c2[nH]nc(-c3ccc(F)cc3)c2-c2ccncc2)c1 | 1370 nM
5 | N#CCNc1[nH]nc(-c2ccc(F)cc2)c1-c1ccncc1 | 17 nM

Continued, values first:

Row | IC50 | SMILES
6 | 280 nM | O=S(=O)(NCc1[nH]nc(-c2ccc(F)cc2)c1-c1ccncc1)c1ccc2ccccc2c1
7 | 530 nM | CC1CCCCN1CCCNc1cc(-c2c[nH]nc2-c2ccc(F)cc2)ccn1 (stereo not given)
8 | > 100000 nM | CCOC(=O)N1CCC(Nc2n[nH]c(-c3ccc(Cl)cc3)c2-c2ccncc2)CC1
9 | 12100 nM | CCCc1n[nH]c(-c2cccc([N+](=O)[O-])c2)c1-c1ccncc1
10 | 110 nM | CC(C)(N)Cc1[nH]nc(-c2ccc(F)cc2)c1-c1ccncc1
11 | 2200 nM | CCN(CC)C(=O)N[C@@H](Cc1ccccc1)c1[nH]nc(-c2ccc(F)cc2)c1-c1ccncc1
12 | 38100 nM | O=C(N[C@H](Cc1ccccc1)c1[nH]nc(-c2ccc(F)cc2)c1-c1ccncc1)c1cnc2ccccc2n1
13 | 14000 nM | O=C(Nc1ccccc1F)N[C@@H](Cc1ccccc1)c1[nH]nc(-c2ccc(F)cc2)c1-c1ccncc1
14 | 770 nM | Clc1ccc(-c2n[nH]c(N3CCSCC3)c2-c2ccncc2)cc1
15 | 2670 nM | O=C(NCc1[nH]nc(-c2ccc(F)cc2)c1-c1ccncc1)c1cc(Cl)cc(Cl)c1

same assay, conditions: concentration not given here

Row | SMILES | inhibition
16 | Cc1c(-c2ccncc2)c(-c2ccc(F)cc2)nn1CC(=O)N(CCC#N)CC1CCCO1 (stereo not given) | 58%
17 | O=C(NCCCc1[nH]nc(-c2ccc(F)cc2)c1-c1ccncc1)N1CCOCC1 | 82%
18 | CN(C)C(=O)NCCCc1[nH]nc(-c2ccc(F)cc2)c1-c1ccncc1 | 90%
19 | CCc1cccc(CC)c1NC(=O)Cn1nc(-c2ccc(F)cc2)c(-c2ccncc2)c1C | 70%
20 | CCCCC(C)NC(=O)Cn1nc(-c2ccc(F)cc2)c(-c2ccncc2)c1C (stereo not given) | 75%
21 | Cc1c(-c2ccncc2)c(-c2ccc(F)cc2)nn1CC(=O)N1CCSC1 | 63%
22 | O=C(NCCCc1[nH]nc(-c2ccc(F)cc2)c1-c1ccncc1)[C@H]1CCCN1 | 81%
23 | COCC(C)NC(=O)Cn1nc(-c2ccc(F)cc2)c(-c2ccncc2)c1C (stereo not given) | 60%
24 | CCCC(CCC)NC(=O)Cn1nc(-c2ccc(F)cc2)c(-c2ccncc2)c1C | 77%
25 | O=C(NCCCc1[nH]nc(-c2ccc(F)cc2)c1-c1ccncc1)NCc1ccccc1 | 82%
26 | COc1ccccc1C(=O)NCCCc1[nH]nc(-c2ccc(F)cc2)c1-c1ccncc1 | 68%
27 | O=C(NCCCc1[nH]nc(-c2ccc(F)cc2)c1-c1ccncc1)N1CCCC1 | 86%
28 | Cc1c(-c2ccncc2)c(-c2ccc(F)cc2)nn1CC(=O)N(C)CCc1ccncc1 | 38%
29 | CCCCCCCOc1ccc(NC(=O)Cn2nc(-c3ccc(F)cc3)c(-c3ccncc3)c2C)cc1 | 89%
30 | CC(C)(C)C(=O)NCCCc1[nH]nc(-c2ccc(F)cc2)c1-c1ccncc1 | 87%
31 | Cc1c(-c2ccncc2)c(-c2ccc(F)cc2)nn1CC(=O)NC1CCCc2ccccc21 (stereo not given) | 76%
32 | Cc1c(-c2ccncc2)c(-c2ccc(F)cc2)nn1CC(=O)N[C@@H](C)c1cccc2ccccc12 | 74%
33 | Cc1c(-c2ccncc2)c(-c2ccc(F)cc2)nn1CC(=O)Nc1ccc(Cl)nc1 | 94%

Row | SMILES | inhibition
34 | COc1ccc(NC(=O)NCCCc2[nH]nc(-c3ccc(F)cc3)c2-c2ccncc2)c(OC)c1 | 83%
35 | O=C(NCc1[nH]nc(-c2ccc(F)cc2)c1-c1ccncc1)c1cccc2ccccc12 | 91%
36 | O=C(NCCCc1[nH]nc(-c2ccc(F)cc2)c1-c1ccncc1)c1ccccc1I | 66%
37 | COc1ccc(S(=O)(=O)NCCCc2[nH]nc(-c3ccc(F)cc3)c2-c2ccncc2)cc1OC | 74%
38 | O=C(NCCc1[nH]nc(-c2ccc(F)cc2)c1-c1ccncc1)C1CC1 | 85%
39 | Cc1c(-c2ccncc2)c(-c2ccc(F)cc2)nn1CC(=O)Nc1ccccc1 | 85%
40 | COC(=O)C(NC(=O)Cn1nc(-c2ccc(F)cc2)c(-c2ccncc2)c1C)C(C)C (stereo not given) | 82%
41 | Cc1c(-c2ccncc2)c(-c2ccc(F)cc2)nn1CC(=O)N(Cc1ccco1)CC(C)C | 48%
42 | CSc1ccccc1NC(=O)Cn1nc(-c2ccc(F)cc2)c(-c2ccncc2)c1C | 82%
43 | Cc1c(-c2ccncc2)c(-c2ccc(F)cc2)nn1CC(=O)N1CCCCC1 | 78%
44 | CCN(CC)CCN(CCN(CC)CC)C(=O)Cn1nc(-c2ccc(F)cc2)c(-c2ccncc2)c1C | 47%
45 | Cc1c(-c2ccncc2)c(-c2ccc(F)cc2)nn1CC(=O)NC1CCN(CCc2c[nH]c3ccccc23)CC1 | 84%
46 | O=S(=O)(NCc1[nH]nc(-c2ccc(F)cc2)c1-c1ccncc1)c1cc(Br)c(Br)s1 | 77%
47 | CCNC(=O)NCCCc1[nH]nc(-c2ccc(F)cc2)c1-c1ccncc1 | 89%
48 | CCN(CC)C(=O)NCCCc1[nH]nc(-c2ccc(F)cc2)c1-c1ccncc1 | 89%
49 | Cc1c(-c2ccncc2)c(-c2ccc(F)cc2)nn1CC(=O)NC1CCSc2ccccc21 (stereo not given) | 76%
50 | Cc1c(-c2ccncc2)c(-c2ccc(F)cc2)nn1CC(=O)NC1Cc2ccccc2C1 | 69%

The remaining lines, values ahead:

Row | inhibition | SMILES
51 | 73% | Cc1c(-c2ccncc2)c(-c2ccc(F)cc2)nn1CC(=O)N(C)Cc1ccccc1
52 | 73% | O=S(=O)(NCc1[nH]nc(-c2ccc(F)cc2)c1-c1ccncc1)c1cccc2cccnc12
53 | 46% | CCN(Cc1c(F)cccc1Cl)C(=O)Cn1nc(-c2ccc(F)cc2)c(-c2ccncc2)c1C
54 | 90% | Cc1c(-c2ccncc2)c(-c2ccc(F)cc2)nn1CC(=O)Nc1ccccc1Cl
55 | 78% | COCC(=O)NCCCc1[nH]nc(-c2ccc(F)cc2)c1-c1ccncc1
56 | 68% | COc1cccc(NC(=O)NCCc2[nH]nc(-c3ccc(F)cc3)c2-c2ccncc2)c1
57 | 38% | CC[C@H](C)[C@H](NC(=O)Cn1nc(-c2ccc(F)cc2)c(-c2ccncc2)c1C)C(=O)OC
58 | 71% | COc1ccc(S(=O)(=O)NCCCc2[nH]nc(-c3ccc(F)cc3)c2-c2ccncc2)cc1
59 | 87% | CCOC(=O)c1cc(-c2ccc(NC(=O)Cn3nc(-c4ccc(F)cc4)c(-c4ccncc4)c3C)cc2)oc1C
60 | 75% | CC(C)COC(=O)NCCc1[nH]nc(-c2ccc(F)cc2)c1-c1ccncc1
61 | 84% | CC(C)S(=O)(=O)NCCCc1[nH]nc(-c2ccc(F)cc2)c1-c1ccncc1
62 | 81% | Cc1c(-c2ccncc2)c(-c2ccc(F)cc2)nn1CC(=O)Nc1ccc(C(F)(F)F)cc1
63 | 81% | CC(C)NC(=O)NCCCc1[nH]nc(-c2ccc(F)cc2)c1-c1ccncc1
64 | 87% | Cc1c(-c2ccncc2)c(-c2ccc(F)cc2)nn1CC(=O)Nc1ccccc1C(=O)NC1CCCCC1
65 | 73% | O=C(NCc1[nH]nc(-c2ccc(F)cc2)c1-c1ccncc1)c1cc(Cl)ccc1F
66 | 64% | O=C(NCCCc1[nH]nc(-c2ccc(F)cc2)c1-c1ccncc1)c1ccc(F)cc1
67 | 76% | COC(=O)[C@H](COCc1ccccc1)NC(=O)Cn1nc(-c2ccc(F)cc2)c(-c2ccncc2)c1C
68 | 78% | Cc1c(-c2ccncc2)c(-c2ccc(F)cc2)nn1CC(=O)N1CCSC1c1ccco1 (stereo not given)
69 | 88% | Cc1c(-c2ccncc2)c(-c2ccc(F)cc2)nn1CC(=O)Nc1ccccc1C(=O)OC(C)C
70 | 92% | CCCS(=O)(=O)NCCCc1[nH]nc(-c2ccc(F)cc2)c1-c1ccncc1
71 | 88% | CCCNC(=O)NCCCc1[nH]nc(-c2ccc(F)cc2)c1-c1ccncc1

Row | inhibition | SMILES
72 | 60% | Cc1c(-c2ccncc2)c(-c2ccc(F)cc2)nn1CC(=O)N(C)CC(N)=O
73 | 77% | O=S(=O)(NCCCc1[nH]nc(-c2ccc(F)cc2)c1-c1ccncc1)c1ccccc1F
74 | 73% | Cc1c(-c2ccncc2)c(-c2ccc(F)cc2)nn1CC(=O)NC1CCN(Cc2ccccc2)C1 (stereo not given)
75 | 84% | Cc1c(-c2ccncc2)c(-c2ccc(F)cc2)nn1CC(=O)Nc1ccccc1C(C)(C)C
76 | 92% | Cc1c(-c2ccncc2)c(-c2ccc(F)cc2)nn1CC(=O)Nc1cccc(F)c1
77 | 82% | Cc1c(-c2ccncc2)c(-c2ccc(F)cc2)nn1CC(=O)NC1CCCCCC1
78 | 88% | Cc1c(-c2ccncc2)c(-c2ccc(F)cc2)nn1CC(=O)Nc1ccc(Cl)cc1
79 | 17% | CCCN(CCC)CC(C)NC(=O)Cn1nc(-c2ccc(F)cc2)c(-c2ccncc2)c1C (stereo not given)
80 | 33% | Cc1c(-c2ccncc2)c(-c2ccc(F)cc2)nn1CC(=O)N1Cc2ccsc2CC1c1ccc(Cl)cc1 (stereo not given)
81 | 80% | O=C(NCCCc1[nH]nc(-c2ccc(F)cc2)c1-c1ccncc1)c1ccno1
82 | 35% | Cc1c(-c2ccncc2)c(-c2ccc(F)cc2)nn1CC(=O)NC(C)CCc1ccccc1 (stereo not given)
83 | 38% | Cc1c(-c2ccncc2)c(-c2ccc(F)cc2)nn1CC(=O)NC1CCC(C(C)(C)C)CC1 (stereo not given)
84 | 94% | CCOC(=O)NCCCc1[nH]nc(-c2ccc(F)cc2)c1-c1ccncc1
85 | 86% | Cc1c(-c2ccncc2)c(-c2ccc(F)cc2)nn1CC(=O)NCC(=O)Nc1ccccc1
86 | 87% | O=S(=O)(Cc1ccccc1)NCCCc1[nH]nc(-c2ccc(F)cc2)c1-c1ccncc1
87 | 86% | O=C(NCCCc1[nH]nc(-c2ccc(F)cc2)c1-c1ccncc1)Nc1ccccc1F
88 | 85% | COc1ccc(OC)c(NC(=O)Cn2nc(-c3ccc(F)cc3)c(-c3ccncc3)c2C)c1
89 | 47% | CCN1CC(NC(=O)Cn2nc(-c3ccc(F)cc3)c(-c3ccncc3)c2C)CN1CC
90 | 90% | O=C(Cc1cccs1)NCCCc1[nH]nc(-c2ccc(F)cc2)c1-c1ccncc1
91 | 44% | Cc1c(-c2ccncc2)c(-c2ccc(F)cc2)nn1CC(=O)NC(Cc1ccccc1)c1ccccc1 (stereo not given)
92 | 87% | Cc1c(-c2ccncc2)c(-c2ccc(F)cc2)nn1CC(=O)Nc1ccc(C2CCCCC2)cc1

molecular target: MAPK14 (human) (UniProt Q16539); assay: Inhibition of LPS Stimulated TNF Production by U937 Cells; conditions: not given

Row | IC50 | SMILES
93 | > 1000 nM | O=S(=O)(NCc1[nH]nc(-c2ccc(F)cc2)c1-c1ccncc1)c1cccc2ccccc12
94 | 250 nM | O=C(c1ccccn1)N1CCC(c2[nH]nc(-c3ccc(F)cc3)c2-c2ccncc2)CC1

same assay, conditions: concentration not given here

Row | inhibition | SMILES
95 | 67% | C[C@H](NC(=O)c1c(F)ccc(F)c1F)c1[nH]nc(-c2ccc(F)cc2)c1-c1ccncc1
